Results published in patent publication US5416087A, “Bis-benzo, cyclohepta piperidylidene, piperidine and piperazine compounds, compositions and methods of use” (priority 1993, dated 1995).

Assays:
[1] = system: PAF-induced platelet aggregation; assay: Platelet aggregation assay (PAF-induced aggregation of human platelet-rich plasma); type: cell-based; settings: 2 min, human PRP, PAF 1-5×10^-8 M, 37° C., 2 min. incubation, read-out: PAF Antagonism (in vitro) IC50
Method: Platelet-activating factor (PAF) causes aggregation of platelets by a receptor-mediated mechanism. Therefore, PAF-induced platelet aggregation provides a simple and convenient assay to screen compounds for PAF antagonism.
Blood was centrifuged at 110×g for 15 min. and the supernatant platelet-rich plasma (PRP) carefully transferred into a polypropylene tube. Platelet-poor-plasma (PPP) was prepared by centrifuging PRP at 12,000×g for 2 min. (Beckman Microfuge B). PRP was used within 3 hr. of drawing the blood.
PAF was dissolved in chloroform:methanol (1:1, v/v) at a concentration of 2 mg/ml and stored at -70° C. An aliquot of this solution was transferred to a polypropylene tube and dried under a flow of nitrogen gas. […] This stock solution was further diluted to appropriate concentrations in Hepes-saline-BSA buffer. Collagen (Sigma) and adenosine diphosphate (ADP) (Sigma) were purchased as solutions. Test compounds were initially dissolved in dimethyl sulfoxide (DMSO) at a concentration of 50 mM and then further diluted in Hepes-saline-BSA buffer to achieve appropriate concentrations.
When an aggregating agent such as PAF is added to PRP, platelets aggregate. An aggregometer quantifies this aggregation by measuring and comparing light (infra-red) transmission through PPP and PRP. […]

[2] = system: PAF (agonist bronchospasm); assay: PAF-induced bronchospasm in guinea pigs; type: in vivo, Male Hartley guinea pigs; settings: dose 10 mg/kg oral, PAF 0.4 μg/kg i.v.
Method: (§1) Male Hartley guinea pigs (450-550 g) were obtained from Charles River Breeding Laboratories. The animals were fasted overnight and the following day were anesthetized with 0.9 ml/kg i.p. of dialurethane (containing 0.1 g/ml diallylbarbituric acid, 0.4 g/ml ethylurea and 0.4 g/ml urethane). The left jugular vein was cannulated for the administration of compounds. The trachea was cannulated and the animals were ventilated by a rodent respirator at 55 strokes/min. with a stroke volume of 4 ml. A side arm to the tracheal cannula was connected to a pressure transducer to obtain a continuous measure of inflation pressure. Bronchoconstriction was measured as the percent increase in inflation pressure that peaked within 5 min. after challenge with spasmogen. […] Each animal was challenged with only a single spasmogen. The effect of a compound on the bronchospasm is expressed as a percent inhibition of the increase in inflation pressure compared to the increase in a control group.

[3] = system: Histamine (agonist bronchospasm); assay: Histamine-induced bronchospasm in guinea pigs; type: in vivo, Male Hartley guinea pigs; settings: dose 1 mg/kg oral, histamine 10 ug/kg i.v.
Method: as §1

Row | SMILES | IC50 [1] [µM] | PAF Agonist Bronchospasm (in vivo) - oral, % Inhibition [2] [%] | Histamine Agonist Bronchospasm (in vivo) - oral, % Inhibition [3] [%]
1 | O=C(c1cc[n+]([O-])cc1)N1CCN(C2c3ccccc3-c3ccccc32)CC1 [Example 8] | 2.5 | – | –
2 | CCOC(=O)N1CCC(=C2c3ccc(Cl)cc3CCc3cccnc32)CC1 [Compound 1] | – | < 50 | > 50
